These results are taken from patent US20080200519A1, “TETRAHYDRONAPHTHALENYLAMIDES, A PROCESS FOR THEIR PRODUCTION AND THEIR USE AS ANTI-INFLAMMATORY AGENTS” (priority 2007, published 2008).

Test [1] has as its target T1, glucocorticoid receptor (GR) (Homo sapiens, UniProt P04150).
T1 construct: made in house; host or cells: Sf9 cells infected with recombinant baculovirus (cytosol preparation)
T1 sequence (P04150 1-777): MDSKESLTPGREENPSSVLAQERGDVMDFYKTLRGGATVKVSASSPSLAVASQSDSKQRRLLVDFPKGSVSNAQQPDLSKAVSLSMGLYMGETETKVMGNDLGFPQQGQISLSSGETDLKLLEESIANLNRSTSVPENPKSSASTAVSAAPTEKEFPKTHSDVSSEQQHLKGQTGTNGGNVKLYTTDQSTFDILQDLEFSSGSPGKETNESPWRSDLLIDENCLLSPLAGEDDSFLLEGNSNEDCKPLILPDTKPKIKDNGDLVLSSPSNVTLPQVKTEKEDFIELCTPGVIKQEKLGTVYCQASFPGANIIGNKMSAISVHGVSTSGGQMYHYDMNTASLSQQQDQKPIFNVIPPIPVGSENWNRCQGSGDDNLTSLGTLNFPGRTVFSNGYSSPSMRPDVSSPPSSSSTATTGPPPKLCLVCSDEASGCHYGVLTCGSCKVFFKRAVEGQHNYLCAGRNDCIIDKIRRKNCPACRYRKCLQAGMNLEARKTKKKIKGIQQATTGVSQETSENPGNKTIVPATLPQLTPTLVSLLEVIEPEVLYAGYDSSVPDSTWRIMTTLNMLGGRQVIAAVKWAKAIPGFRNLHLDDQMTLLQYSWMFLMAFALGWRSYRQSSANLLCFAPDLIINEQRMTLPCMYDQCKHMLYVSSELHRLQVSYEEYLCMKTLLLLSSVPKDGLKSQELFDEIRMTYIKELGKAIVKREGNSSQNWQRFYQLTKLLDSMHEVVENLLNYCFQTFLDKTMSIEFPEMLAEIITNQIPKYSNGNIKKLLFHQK
In words: binding to recombinantly produced glucocorticoid receptor, cytosol preparations of Sf9 cells, [3H]-dexamethasone as reference. The note with it: recombinant GR. The source says:
(§1) The binding of the substances to the glucocorticoid receptor (GR) and other steroid hormone receptors (mineral corticoid receptor (MR), progesterone receptor (PR) and androgen receptor (AR)) is examined with the aid of recombinantly produced receptors. Cytosol preparations of Sf9 cells, which had been infected with recombinant baculoviruses, which code for the GR, are used for the binding studies. In comparison to reference substance [^3H]-dexamethasone, the substances show a high to very high affinity to GR.

Test [2] addresses T2, mineral corticoid receptor (MR) (Homo sapiens, UniProt P08235).
T2 construct: made in house
T2 sequence (P08235 1-984): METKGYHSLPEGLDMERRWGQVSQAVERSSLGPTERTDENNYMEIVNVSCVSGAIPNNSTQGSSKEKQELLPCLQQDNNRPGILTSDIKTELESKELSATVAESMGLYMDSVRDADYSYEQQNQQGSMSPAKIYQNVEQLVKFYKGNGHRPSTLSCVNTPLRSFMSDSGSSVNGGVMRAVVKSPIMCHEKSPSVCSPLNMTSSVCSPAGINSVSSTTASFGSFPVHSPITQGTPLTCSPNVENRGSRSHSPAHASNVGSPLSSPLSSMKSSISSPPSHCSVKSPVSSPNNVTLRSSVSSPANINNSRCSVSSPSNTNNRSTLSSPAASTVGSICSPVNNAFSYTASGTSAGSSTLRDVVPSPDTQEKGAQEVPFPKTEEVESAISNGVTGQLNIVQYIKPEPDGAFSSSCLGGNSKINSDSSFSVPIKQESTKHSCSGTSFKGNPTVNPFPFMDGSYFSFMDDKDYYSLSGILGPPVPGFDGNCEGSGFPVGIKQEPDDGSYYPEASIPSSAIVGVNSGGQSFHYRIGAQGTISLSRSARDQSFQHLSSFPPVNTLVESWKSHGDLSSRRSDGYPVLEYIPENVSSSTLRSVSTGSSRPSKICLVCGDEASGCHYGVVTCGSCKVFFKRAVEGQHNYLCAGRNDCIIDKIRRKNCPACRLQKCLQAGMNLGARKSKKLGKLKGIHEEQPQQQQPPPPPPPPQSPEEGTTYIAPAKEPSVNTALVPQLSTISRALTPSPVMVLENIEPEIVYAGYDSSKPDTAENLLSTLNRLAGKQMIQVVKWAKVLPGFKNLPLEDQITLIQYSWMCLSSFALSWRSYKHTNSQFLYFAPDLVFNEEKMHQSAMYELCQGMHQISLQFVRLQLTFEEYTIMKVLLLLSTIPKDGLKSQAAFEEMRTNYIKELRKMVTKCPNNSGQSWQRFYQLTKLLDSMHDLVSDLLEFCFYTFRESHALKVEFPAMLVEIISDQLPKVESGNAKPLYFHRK
In words: binding to recombinantly produced mineral corticoid receptor.
Description: as §1

For test [3], the target named is T3, progesterone receptor (PR) (Homo sapiens, UniProt P06401).
T3 construct: made in house
T3 sequence (P06401 1-933): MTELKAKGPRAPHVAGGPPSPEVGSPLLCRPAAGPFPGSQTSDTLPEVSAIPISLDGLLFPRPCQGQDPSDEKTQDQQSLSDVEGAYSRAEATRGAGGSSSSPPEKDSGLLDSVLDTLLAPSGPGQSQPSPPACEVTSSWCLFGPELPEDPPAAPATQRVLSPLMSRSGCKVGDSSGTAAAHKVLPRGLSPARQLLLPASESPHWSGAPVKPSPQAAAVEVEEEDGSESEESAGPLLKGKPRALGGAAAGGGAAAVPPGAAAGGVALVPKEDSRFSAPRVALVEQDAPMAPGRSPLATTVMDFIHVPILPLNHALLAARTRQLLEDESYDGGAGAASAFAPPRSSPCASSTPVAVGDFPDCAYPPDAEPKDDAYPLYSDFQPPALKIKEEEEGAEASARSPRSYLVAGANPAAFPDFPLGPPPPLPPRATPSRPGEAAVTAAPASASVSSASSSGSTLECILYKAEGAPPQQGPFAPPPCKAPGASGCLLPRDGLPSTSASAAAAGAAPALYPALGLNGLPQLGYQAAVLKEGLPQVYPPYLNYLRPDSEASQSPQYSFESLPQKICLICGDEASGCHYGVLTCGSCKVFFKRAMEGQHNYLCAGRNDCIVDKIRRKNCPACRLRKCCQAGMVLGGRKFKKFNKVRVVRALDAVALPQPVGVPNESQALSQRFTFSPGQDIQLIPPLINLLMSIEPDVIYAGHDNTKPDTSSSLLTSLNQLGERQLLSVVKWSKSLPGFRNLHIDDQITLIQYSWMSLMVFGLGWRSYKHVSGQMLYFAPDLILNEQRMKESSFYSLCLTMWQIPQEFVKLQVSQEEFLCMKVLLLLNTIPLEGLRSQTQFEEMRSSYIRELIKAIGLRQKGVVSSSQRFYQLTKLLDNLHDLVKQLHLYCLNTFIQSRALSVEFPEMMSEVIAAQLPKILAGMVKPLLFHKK
In words: binding to recombinantly produced progesterone receptor.
Description: as §1

Another test concerns the target T4, androgen receptor (AR) (Homo sapiens, UniProt P10275).
T4 construct: made in house
T4 sequence (P10275 1-920): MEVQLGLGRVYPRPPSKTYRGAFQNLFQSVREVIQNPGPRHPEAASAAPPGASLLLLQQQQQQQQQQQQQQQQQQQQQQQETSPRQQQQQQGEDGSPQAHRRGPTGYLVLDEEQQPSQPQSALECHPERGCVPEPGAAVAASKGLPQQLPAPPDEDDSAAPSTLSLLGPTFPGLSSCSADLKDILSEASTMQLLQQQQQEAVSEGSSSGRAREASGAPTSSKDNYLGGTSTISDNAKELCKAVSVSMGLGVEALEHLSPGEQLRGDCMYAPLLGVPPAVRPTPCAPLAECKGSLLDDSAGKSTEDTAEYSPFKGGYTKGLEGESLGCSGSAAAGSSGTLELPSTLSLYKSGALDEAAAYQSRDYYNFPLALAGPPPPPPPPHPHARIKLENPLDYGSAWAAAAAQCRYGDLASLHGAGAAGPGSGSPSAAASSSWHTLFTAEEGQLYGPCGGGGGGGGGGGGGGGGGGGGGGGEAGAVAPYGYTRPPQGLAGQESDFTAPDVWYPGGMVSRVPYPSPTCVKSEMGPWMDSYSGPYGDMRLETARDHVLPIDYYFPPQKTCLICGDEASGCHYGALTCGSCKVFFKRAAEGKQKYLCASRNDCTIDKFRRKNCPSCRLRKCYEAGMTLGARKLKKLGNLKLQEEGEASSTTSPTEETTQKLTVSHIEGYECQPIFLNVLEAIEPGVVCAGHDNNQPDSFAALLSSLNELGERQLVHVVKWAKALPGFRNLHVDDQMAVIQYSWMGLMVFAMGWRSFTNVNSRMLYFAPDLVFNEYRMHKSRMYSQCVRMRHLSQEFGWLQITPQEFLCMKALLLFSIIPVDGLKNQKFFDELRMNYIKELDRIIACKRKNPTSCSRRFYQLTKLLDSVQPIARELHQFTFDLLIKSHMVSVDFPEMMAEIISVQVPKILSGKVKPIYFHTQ
Put plainly: binding to recombinantly produced androgen receptor.
Description: as §1

In another test the target is ER. Put plainly: steroid receptor binding, ER.
Test [4] concerns secretion of cytokine IL-8 in human monocyte cell line THP-1. In words: inhibition of LPS-triggered IL-8 secretion in THP-1 cells (ELISA). Type of test: cell-based. How it is done: The concentration of the cytokines was determined in the supernatant by means of commercially available ELISA kits.
On the technique in general: In an ELISA, binding on a coated surface is turned into a signal by an enzyme label.

`COc1c(F)ccc2c1C(C)(C)C[C@](O)(C(F)(F)F)[C@H]2NC(=O)c1cnn(-c2ccc(F)cc2F)c1N` (relative stereo) [Example 3, 5-Amino-1-(2,4-difluorophenyl)-N-[(cis)-6-fluoro-1,2,3,4-tetrahydro-2-hydroxy-5-methoxy-4,4-dimethyl-2-(trifluoromethyl)naphthalene-1-yl]-1H-pyrazole-4-carboxamide]: the IC50 is 6 nM in test [1]; more than 1000 nM in test [2]; more than 1000 nM in test [3]; more than 1000 nM on androgen receptor (AR); more than 1000 nM on ER; 7.1 nM in test [4] (Homo sapiens, read-out: IC50(IL8)). The “eff. relative to dexamethasone” value in test [4] (IL-8 inhibition) was found to be 96%.

As a reminder, the IC50 is the concentration needed to halve the response being measured.
